From the supplement of paper PMC5662764
± gives the standard deviation of the averaged measurements.

Tests used:
Assay in all cases: normalised growth rate inhibition (GR value) relative to DMSO control (GR (1 = untreated growth, 0 = cytostasis, <0 = cytotoxic)); higher = less growth inhibition
Details in all cases: 72 h
[1] = test system: BT20
Protocol: (§1)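 Breast cancer cell lines (BT-20, Hs 578T, MCF 10A, MCF7, MDA-MB-231, SK-BR-3) were plated in 384-well plates and treated 24 h later with drugs at six concentrations (0.04-10 µM). Viable cells were counted by Hoechst/dead-cell-stain imaging at 0 and 72 h. Counts were normalised to DMSO controls on the same plate to give the relative cell count and the growth-rate inhibition (GR) value; technical plate triplicates were averaged for each biological replicate.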

[2] = test system: HS578T
Protocol: as §1

[3] = test system: MCF10A
Protocol: as §1

[4] = test system: MCF7
Protocol: as §1

[5] = test system: MDAMB231
Protocol: as §1

[6] = test system: SKBR3
Protocol: as §1

Structure (SMILES) | normalised growth rate inhibition ([1]; 0.04 µM) | normalised growth rate inhibition ([1]; 0.12 µM) | normalised growth rate inhibition ([1]; 0.37 µM) | normalised growth rate inhibition ([1]; 1.11 µM) | normalised growth rate inhibition ([1]; 3.33 µM) | normalised growth rate inhibition ([1]; 10 µM) | normalised growth rate inhibition ([2]; 0.04 µM) | normalised growth rate inhibition ([2]; 0.12 µM) | normalised growth rate inhibition ([2]; 0.37 µM) | normalised growth rate inhibition ([2]; 1.11 µM) | normalised growth rate inhibition ([2]; 3.33 µM) | normalised growth rate inhibition ([2]; 10 µM) | normalised growth rate inhibition ([3]; 0.04 µM) | normalised growth rate inhibition ([3]; 0.12 µM) | normalised growth rate inhibition ([3]; 0.37 µM) | normalised growth rate inhibition ([3]; 1.11 µM) | normalised growth rate inhibition ([3]; 3.33 µM) | normalised growth rate inhibition ([3]; 10 µM) | normalised growth rate inhibition ([4]; 0.04 µM) | normalised growth rate inhibition ([4]; 0.12 µM) | normalised growth rate inhibition ([4]; 0.37 µM) | normalised growth rate inhibition ([4]; 1.11 µM) | normalised growth rate inhibition ([4]; 3.33 µM) | normalised growth rate inhibition ([4]; 10 µM) | normalised growth rate inhibition ([5]; 0.04 µM) | normalised growth rate inhibition ([5]; 0.12 µM) | normalised growth rate inhibition ([5]; 0.37 µM) | normalised growth rate inhibition ([5]; 1.11 µM) | normalised growth rate inhibition ([5]; 3.33 µM) | normalised growth rate inhibition ([5]; 10 µM) | normalised growth rate inhibition ([6]; 0.04 µM) | normalised growth rate inhibition ([6]; 0.12 µM) | normalised growth rate inhibition ([6]; 0.37 µM) | normalised growth rate inhibition ([6]; 1.11 µM) | normalised growth rate inhibition ([6]; 3.33 µM) | normalised growth rate inhibition ([6]; 10 µM)
Cc1cc2c(F)c(Oc3ncnn4cc(OC[C@@H](C)O)c(C)c34)ccc2[nH]1 [brivanib] | 0.949 ± 0.039 | 0.935 ± 0.016 | 0.956 ± 0.012 | 0.928 ± 0.024 | 0.925 ± 0.047 | 0.798 ± 0.03 | 0.963 ± 0.016 | 0.952 ± 0.02 | 0.963 ± 0.011 | 0.9364 ± 0.0061 | 0.9281 ± 0.0053 | 0.797 ± 0.055 | 0.992 ± 0.017 | 0.977 ± 0.023 | 0.969 ± 0.016 | 0.883 ± 0.043 | 0.74 ± 0.071 | 0.316 ± 0.043 | 0.902 ± 0.093 | 0.864 ± 0.064 | 0.898 ± 0.079 | 0.908 ± 0.062 | 0.949 ± 0.029 | 0.86 ± 0.035 | 0.902 ± 0.11 | 0.892 ± 0.081 | 0.91 ± 0.062 | 0.923 ± 0.062 | 0.895 ± 0.1 | 0.667 ± 0.094 | 0.811 ± 0.14 | 0.798 ± 0.17 | 0.807 ± 0.15 | 0.861 ± 0.11 | 0.85 ± 0.11 | 0.822 ± 0.1
CN1CCN(c2ccc3nc(-c4c(N)c5c(F)cccc5[nH]c4=O)[nH]c3c2)CC1 [dovitinib] | 0.83 ± 0.047 | 0.685 ± 0.11 | 0.394 ± 0.13 | 0.304 ± 0.072 | 0.219 ± 0.034 | 0.156 ± 0.12 | 0.791 ± 0.047 | 0.562 ± 0.035 | 0.3 ± 0.083 | 0.271 ± 0.097 | 0.283 ± 0.079 | 0.254 ± 0.16 | 0.962 ± 0.032 | 0.893 ± 0.046 | 0.599 ± 0.098 | 0.368 ± 0.18 | 0.146 ± 0.085 | 0.0253 ± 0.033 | 0.898 ± 0.047 | 0.862 ± 0.079 | 0.678 ± 0.14 | 0.554 ± 0.19 | 0.379 ± 0.17 | 0.304 ± 0.1 | 0.903 ± 0.11 | 0.817 ± 0.14 | 0.534 ± 0.1 | 0.451 ± 0.12 | 0.343 ± 0.068 | 0.23 ± 0.099 | 0.711 ± 0.12 | 0.659 ± 0.066 | 0.497 ± 0.062 | 0.474 ± 0.081 | 0.275 ± 0.04 | 0.142 ± 0.045
Cc1nc(Nc2ncc(C(=O)Nc3c(C)cccc3Cl)s2)cc(N2CCN(CCO)CC2)n1 [dasatinib] | 0.622 ± 0.27 | 0.364 ± 0.2 | 0.0964 ± 0.081 | 0.0125 ± 0.077 | -0.085 ± 0.094 | -0.163 ± 0.1 | 0.394 ± 0.28 | 0.17 ± 0.22 | 0.0194 ± 0.17 | -0.0213 ± 0.16 | -0.0565 ± 0.17 | -0.109 ± 0.15 | 0.621 ± 0.24 | 0.391 ± 0.23 | 0.196 ± 0.14 | 0.0869 ± 0.091 | -0.0296 ± 0.08 | -0.138 ± 0.061 | 0.342 ± 0.32 | 0.0795 ± 0.2 | -0.0261 ± 0.17 | -0.0357 ± 0.15 | -0.0394 ± 0.16 | -0.0825 ± 0.16 | 0.159 ± 0.29 | -0.107 ± 0.1 | -0.204 ± 0.032 | -0.233 ± 0.054 | -0.239 ± 0.061 | -0.259 ± 0.12 | 0.998 ± 0.06 | 0.937 ± 0.08 | 0.942 ± 0.058 | 0.766 ± 0.064 | 0.398 ± 0.15 | -0.166 ± 0.22
N#CC[C@H](C1CCCC1)n1cc(-c2ncnc3[nH]ccc23)cn1 [ruxolitinib] | 0.973 ± 0.066 | 0.942 ± 0.019 | 0.95 ± 0.046 | 0.973 ± 0.08 | 0.933 ± 0.087 | 0.707 ± 0.074 | 0.9891 ± 0.0054 | 0.985 ± 0.039 | 0.973 ± 0.023 | 0.9536 ± 0.0035 | 0.901 ± 0.021 | 0.693 ± 0.031 | 0.9818 ± 0.0081 | 0.9898 ± 0.007 | 0.978 ± 0.011 | 0.956 ± 0.019 | 0.948 ± 0.021 | 0.828 ± 0.039 | 0.967 ± 0.062 | 0.948 ± 0.047 | 0.963 ± 0.042 | 1.05 ± 0.038 | 1.05 ± 0.027 | 0.778 ± 0.075 | 0.938 ± 0.065 | 0.922 ± 0.052 | 0.933 ± 0.087 | 0.95 ± 0.069 | 0.95 ± 0.043 | 0.673 ± 0.26 | 0.882 ± 0.12 | 0.903 ± 0.098 | 0.922 ± 0.086 | 0.918 ± 0.057 | 0.958 ± 0.084 | 0.81 ± 0.18
Cc1ccc(F)c(NC(=O)Nc2ccc(-c3cccc4[nH]nc(N)c34)cc2)c1 [linifanib] | 1.09 ± 0.014 | 1.07 ± 0.039 | 1.07 ± 0.032 | 1.08 ± 0.026 | 1.03 ± 0.011 | 0.544 ± 0.37 | 0.995 ± 0.011 | 0.979 ± 0.011 | 0.971 ± 0.025 | 0.969 ± 0.015 | 0.9497 ± 0.0069 | 0.701 ± 0.13 | 1.039 ± 0.0077 | 1.032 ± 0.0048 | 1.02 ± 0.012 | 1.02 ± 0.014 | 0.994 ± 0.029 | 0.716 ± 0.24 | 1.07 ± 0.12 | 0.996 ± 0.14 | 1.01 ± 0.12 | 0.939 ± 0.079 | 0.874 ± 0.061 | 0.0601 ± 0.092 | 1.08 ± 0.014 | 1.09 ± 0.03 | 1.08 ± 0.045 | 1.07 ± 0.053 | 1.06 ± 0.045 | 0.192 ± 0.29 | 1.11 ± 0.046 | 1.08 ± 0.025 | 1.11 ± 0.043 | 1.1 ± 0.078 | 1.09 ± 0.078 | 0.232 ± 0.072
Cc1nc(NC(=O)N2CCC[C@H]2C(N)=O)sc1-c1ccnc(C(C)(C)C(F)(F)F)c1 | 1.04 ± 0.017 | 0.979 ± 0.048 | 0.722 ± 0.027 | 0.553 ± 0.12 | 0.123 ± 0.047 | -0.157 ± 0.072 | 0.971 ± 0.012 | 0.9151 ± 0.001 | 0.871 ± 0.026 | 0.838 ± 0.026 | 0.762 ± 0.011 | 0.561 ± 0.051 | 0.976 ± 0.022 | 0.94 ± 0.041 | 0.896 ± 0.061 | 0.865 ± 0.064 | 0.77 ± 0.11 | 0.439 ± 0.14 | 0.871 ± 0.11 | 0.701 ± 0.1 | 0.508 ± 0.14 | 0.365 ± 0.11 | 0.204 ± 0.099 | -0.0344 ± 0.057 | 0.997 ± 0.058 | 0.986 ± 0.038 | 0.963 ± 0.048 | 0.935 ± 0.032 | 0.89 ± 0.015 | 0.65 ± 0.09 | 0.896 ± 0.061 | 0.811 ± 0.059 | 0.679 ± 0.051 | 0.553 ± 0.039 | 0.323 ± 0.11 | -0.0922 ± 0.15
O=C1NC(=O)/C(=C/c2ccc3nccc(-c4ccncc4)c3c2)S1 | 0.934 ± 0.086 | 0.638 ± 0.15 | 0.192 ± 0.15 | -0.221 ± 0.082 | -0.352 ± 0.1 | -0.44 ± 0.1 | 0.948 ± 0.035 | 0.835 ± 0.057 | 0.647 ± 0.083 | 0.372 ± 0.044 | 0.0713 ± 0.13 | -0.118 ± 0.12 | 0.987 ± 0.039 | 0.887 ± 0.11 | 0.608 ± 0.17 | 0.143 ± 0.074 | -0.0425 ± 0.058 | -0.115 ± 0.059 | 0.983 ± 0.059 | 0.844 ± 0.057 | 0.581 ± 0.08 | 0.224 ± 0.075 | -0.0358 ± 0.081 | -0.203 ± 0.081 | 1.03 ± 0.083 | 0.992 ± 0.052 | 0.912 ± 0.049 | 0.513 ± 0.18 | 0.131 ± 0.25 | -0.0544 ± 0.27 | 0.987 ± 0.084 | 0.81 ± 0.14 | 0.541 ± 0.15 | 0.0268 ± 0.1 | -0.291 ± 0.12 | -0.421 ± 0.12
CNC(=O)c1cc(Oc2ccc(NC(=O)Nc3ccc(Cl)c(C(F)(F)F)c3)cc2)ccn1 [sorafenib] | 0.936 ± 0.017 | 0.931 ± 0.023 | 0.855 ± 0.052 | 0.849 ± 0.036 | 0.836 ± 0.026 | 0.429 ± 0.35 | 1.13 ± 0.076 | 1.14 ± 0.061 | 1.16 ± 0.098 | 1.18 ± 0.12 | 1.15 ± 0.11 | 0.874 ± 0.093 | 1.02 ± 0.046 | 0.993 ± 0.048 | 0.978 ± 0.047 | 0.97 ± 0.034 | 0.95 ± 0.038 | 0.65 ± 0.1 | 0.946 ± 0.023 | 0.91 ± 0.057 | 0.936 ± 0.028 | 0.906 ± 0.072 | 0.852 ± 0.089 | 0.247 ± 0.12 | 1.01 ± 0.045 | 0.917 ± 0.13 | 0.927 ± 0.11 | 0.938 ± 0.18 | 0.918 ± 0.13 | 0.801 ± 0.12 | 0.908 ± 0.048 | 0.954 ± 0.093 | 0.993 ± 0.07 | 1.03 ± 0.074 | 1.04 ± 0.084 | 0.212 ± 0.27
CC[C@H](CO)Nc1nc(NCc2ccccc2)c2ncn(C(C)C)c2n1 [roscovitine] | 1.022 ± 0.0042 | 0.9967 ± 0.0034 | 0.913 ± 0.029 | 0.844 ± 0.084 | 0.759 ± 0.062 | 0.197 ± 0.044 | 1.009 ± 0.01 | 1.01 ± 0.016 | 0.975 ± 0.011 | 0.954 ± 0.034 | 0.95 ± 0.054 | 0.688 ± 0.062 | 0.9943 ± 0.0068 | 0.9805 ± 0.0066 | 0.9621 ± 0.0088 | 0.955 ± 0.014 | 0.926 ± 0.025 | 0.439 ± 0.19 | 1.07 ± 0.066 | 1.02 ± 0.024 | 0.922 ± 0.048 | 0.818 ± 0.068 | 0.717 ± 0.087 | -0.102 ± 0.15 | 1.03 ± 0.035 | 0.971 ± 0.03 | 0.926 ± 0.03 | 0.88 ± 0.033 | 0.811 ± 0.077 | 0.401 ± 0.068 | 1.04 ± 0.093 | 1.04 ± 0.045 | 0.979 ± 0.085 | 0.852 ± 0.043 | 0.677 ± 0.023 | 0.146 ± 0.18
